Test results from paper PMC10611619, “[^99mTc]Tc-PentixaTec: development, extensive pre-clinical evaluation, and first human experience” (European Journal of Nuclear Medicine and Molecular Imaging, 2023).
Where a SMILES comes first, the peptide text is derived from it. Side-chain parts run from the residue outwards. [ ]: non-standard residue; d: D form. The star is where a group is joined. 2Nal = N[C@@H](Cc1ccc2ccccc2c1)C(=O)O; dNMeOrn = CN[C@H](CCCN)C(=O)O; 4Abz = Nc1ccc(C(=O)O)cc1; X1 = NCCNCC(CNCCN)C(=O)*; dDap = NC[C@@H](N)C(=O)O

Assay: Patient radiation dosimetry (OLINDA/EXM, RADAR/MIRD)
Format: in vivo, human
Details: for Absorbed organ dose Adrenals / Absorbed organ dose Brain / Absorbed organ dose Breast / Absorbed organ dose Gallbladder wall / Absorbed organ dose Heart wall / Absorbed organ dose Kidneys / Absorbed organ dose LLI wall / Absorbed organ dose Liver / Absorbed organ dose Lungs / Absorbed organ dose Muscle / Absorbed organ dose Osteogenic cells / Absorbed organ dose Ovaries / Absorbed organ dose Pancreas / Absorbed organ dose Red marrow / Absorbed organ dose Skin / Absorbed organ dose Small intestine / Absorbed organ dose Spleen / Absorbed organ dose Stomach wall / Absorbed organ dose Testes / Absorbed organ dose Thymus / Absorbed organ dose Thyroid / Absorbed organ dose Total body / Absorbed organ dose ULI wall / Absorbed organ dose Urinary bladder wall / Absorbed organ dose Uterus: per 1 MBq
Procedure: Radiation dosimetry calculations were performed using the RADAR (Radiation Dose Assessment Resource) method as implemented in the OLINDA/EXM software and according to the recommendations of the Medical Internal Radiation Dose (MIRD) committee. The individual absorbed organ doses (ODs) and the effective doses (EDs) were corrected to consider the current tissue weighting factors of ICRP 103 [38]. For a detailed description of image analysis for dosimetry, please refer to the supplementary materials section.
The Xeleris^TM Dosimetry Toolkit (GE Healthcare, Milwaukee, USA) was used to perform full organ segmentation by an experienced user. This was performed manually on CT images of organs (kidneys, liver, spleen, heart, lungs, lumbar vertebrae 2-4) to define the regions and volumes of interest (VOIs) for gamma camera scans and SPECT analysis. Quantification of the activity in the VOIs was carried out as converting counts in the VOIs by a calibration factor to the average activity per milliliter and per organ.
The VOIs were transferred from SPECT/CT to the planar images. Additional ROIs for the whole body and a background region adjacent to the head were drawn on the planar images.
The VOIs were used to determine the masses of the individual organs. For the lungs, a density of 0.288 g/mL was used. For all organs not covered by any VOI, the uptake was summed as the contribution from the remainder of the body in the dose calculation.
The time-integrated activity coefficients of all contoured organs were determined using the hybrid planar/SPECT method. Thus, the shape of the time-activity curves were estimated based on the planar images using the NUKFIT software and then scaled to activity values using the SPECT/CT. The accumulated activity in the bone marrow was calculated using the activity in the lumbar vertebrae 2-4 with the assumption that these contain 6.7% of the red bone marrow.
Radiation dosimetry calculations were performed using the RADAR (Radiation Dose Assessment Resource) method as implemented in the OLINDA/EXM software and according to the recommendations of the Medical Internal Radiation Dose (MIRD) committee. The OLINDA/EXM application (version 1.0) was used to calculate the individual absorbed organ doses (ODs) and the effective doses (EDs) by using the time-integrated activity coefficients and the individual patients’ organ masses. A mass of 1500 g for the red bone marrow as assumed for all patients. The EDs were afterwards corrected to consider the current tissue weighting factors of ICRP 103 [16]. The absorbed OD and ED were evaluated for each patient and then averaged across all the patients.

C[C@@H](NC(=O)[C@@H](CCCNC(=N)N)NC(=O)[C@@H](CN)NC(=O)C(CNCCN)CNCCN)C(=O)Nc1ccc(C(=O)NCCC[C@@H]2C(=O)N[C@@H](CCCNC(=N)N)C(=O)N[C@@H](Cc3ccc4ccccc4c3)C(=O)NCC(=O)N[C@H](Cc3ccc(O)cc3)C(=O)N2C)cc1 [[^99mTc]Tc-N4-L6-CPCR4, [^99mTc]Tc-N4-dap-r-a-Abz-CPCR4, metal not drawn] (cyclo([dY][dNMeOrn]([4Abz-dA-dR-dDap-X1])R[2Nal]G))
absorbed dose bone marrow, median (four patients): 9.40E − 03 mGy/MBq
absorbed dose bone marrow, range (four patients): 6.2E − 03–13.50E − 03 mGy/MBq
absorbed dose kidneys, median (four patients): 1.23E − 02 mGy/MBq
absorbed dose kidneys, range (four patients): 0.94 E − 02–1.37E − 02 mGy/MBq
absorbed dose spleen, median (four patients): 1.95E − 02 mGy/MBq
absorbed dose spleen, range (four patients): 1.61E − 02–2.38E − 02 mGy/MBq
effective dose per unit of administered activity, median (four patients): 5.3E − 03 mSv/MBq
effective dose per unit of administered activity, range (four patients): 4.3E − 03–6.7E − 03 mSv/MBq
Absorbed organ dose Adrenals (Median): 0.0065 mGy
Absorbed organ dose Brain (Median): 0.0030 mGy
Absorbed organ dose Breast (Median): 0.0025 mGy
Absorbed organ dose Gallbladder wall (Median): 0.0060 mGy
Absorbed organ dose Heart wall (Median): 0.0044 mGy
Absorbed organ dose Kidneys (Median): 0.0123 mGy
Absorbed organ dose LLI wall (Median): 0.0048 mGy
Absorbed organ dose Liver (Median): 0.0077 mGy
Absorbed organ dose Lungs (Median): 0.0063 mGy
Absorbed organ dose Muscle (Median): 0.0035 mGy
Absorbed organ dose Osteogenic cells (Median): 0.0136 mGy
Absorbed organ dose Ovaries (Median): 0.0050 mGy
Absorbed organ dose Pancreas (Median): 0.0070 mGy
Absorbed organ dose Red marrow (Median): 0.0094 mGy
Absorbed organ dose Skin (Median): 0.0023 mGy
Absorbed organ dose Small intestine (Median): 0.0049 mGy
Absorbed organ dose Spleen (Median): 0.0195 mGy
Absorbed organ dose Stomach wall (Median): 0.0051 mGy
Absorbed organ dose Testes (Median): 0.0026 mGy
Absorbed organ dose Thymus (Median): 0.0036 mGy
Absorbed organ dose Thyroid (Median): 0.0033 mGy
Absorbed organ dose Total body (Median): 0.0037 mGy
Absorbed organ dose ULI wall (Median): 0.0049 mGy
Absorbed organ dose Urinary bladder wall (Median): 0.0041 mGy
Absorbed organ dose Uterus (Median): 0.0047 mGy
Absorbed organ dose Adrenals (Patient 1): 0.0053 mGy
Absorbed organ dose Brain (Patient 1): 0.0023 mGy
Absorbed organ dose Breast (Patient 1): 0.0021 mGy
Absorbed organ dose Gallbladder wall (Patient 1): 0.0051 mGy
Absorbed organ dose Heart wall (Patient 1): 0.0040 mGy
Absorbed organ dose Kidneys (Patient 1): 0.0137 mGy
Absorbed organ dose LLI wall (Patient 1): 0.0037 mGy
Absorbed organ dose Liver (Patient 1): 0.0066 mGy
Absorbed organ dose Lungs (Patient 1): 0.0051 mGy
Absorbed organ dose Muscle (Patient 1): 0.0028 mGy
Absorbed organ dose Osteogenic cells (Patient 1): 0.0099 mGy
Absorbed organ dose Ovaries (Patient 1): 0.0040 mGy
Absorbed organ dose Pancreas (Patient 1): 0.0055 mGy
Absorbed organ dose Red marrow (Patient 1): 0.0065 mGy
Absorbed organ dose Skin (Patient 1): 0.0018 mGy
Absorbed organ dose Small intestine (Patient 1): 0.0041 mGy
Absorbed organ dose Spleen (Patient 1): 0.0161 mGy
Absorbed organ dose Stomach wall (Patient 1): 0.0040 mGy
Absorbed organ dose Testes (Patient 1): 0.0023 mGy
Absorbed organ dose Thymus (Patient 1): 0.0030 mGy
Absorbed organ dose Thyroid (Patient 1): 0.0028 mGy
Absorbed organ dose Total body (Patient 1): 0.0028 mGy
Absorbed organ dose ULI wall (Patient 1): 0.0040 mGy
Absorbed organ dose Urinary bladder wall (Patient 1): 0.0033 mGy
Absorbed organ dose Uterus (Patient 1): 0.0038 mGy
Absorbed organ dose Adrenals (Patient 2): 0.0078 mGy
Absorbed organ dose Brain (Patient 2): 0.0032 mGy
Absorbed organ dose Breast (Patient 2): 0.0028 mGy
Absorbed organ dose Gallbladder wall (Patient 2): 0.0068 mGy
Absorbed organ dose Heart wall (Patient 2): 0.0049 mGy
Absorbed organ dose Kidneys (Patient 2): 0.0117 mGy
Absorbed organ dose LLI wall (Patient 2): 0.0053 mGy
Absorbed organ dose Liver (Patient 2): 0.0087 mGy
Absorbed organ dose Lungs (Patient 2): 0.0079 mGy
Absorbed organ dose Muscle (Patient 2): 0.0038 mGy
Absorbed organ dose Osteogenic cells (Patient 2): 0.0162 mGy
Absorbed organ dose Ovaries (Patient 2): 0.0054 mGy
Absorbed organ dose Pancreas (Patient 2): 0.0083 mGy
Absorbed organ dose Red marrow (Patient 2): 0.0135 mGy
Absorbed organ dose Skin (Patient 2): 0.0024 mGy
Absorbed organ dose Small intestine (Patient 2): 0.0053 mGy
Absorbed organ dose Spleen (Patient 2): 0.0238 mGy
Absorbed organ dose Stomach wall (Patient 2): 0.0057 mGy
Absorbed organ dose Thymus (Patient 2): 0.0040 mGy
Absorbed organ dose Thyroid (Patient 2): 0.0032 mGy
Absorbed organ dose Total body (Patient 2): 0.0039 mGy
Absorbed organ dose ULI wall (Patient 2): 0.0055 mGy
Absorbed organ dose Urinary bladder wall (Patient 2): 0.0043 mGy
Absorbed organ dose Uterus (Patient 2): 0.0049 mGy
Absorbed organ dose Adrenals (Patient 3): 0.0083 mGy
Absorbed organ dose Brain (Patient 3): 0.0039 mGy
Absorbed organ dose Breast (Patient 3): 0.0032 mGy
Absorbed organ dose Gallbladder wall (Patient 3): 0.0073 mGy
Absorbed organ dose Heart wall (Patient 3): 0.0054 mGy
Absorbed organ dose Kidneys (Patient 3): 0.0128 mGy
Absorbed organ dose LLI wall (Patient 3): 0.0062 mGy
Absorbed organ dose Liver (Patient 3): 0.0089 mGy
Absorbed organ dose Lungs (Patient 3): 0.0075 mGy
Absorbed organ dose Muscle (Patient 3): 0.0044 mGy
Absorbed organ dose Osteogenic cells (Patient 3): 0.0184 mGy
Absorbed organ dose Ovaries (Patient 3): 0.0064 mGy
Absorbed organ dose Pancreas (Patient 3): 0.0092 mGy
Absorbed organ dose Red marrow (Patient 3): 0.0123 mGy
Absorbed organ dose Skin (Patient 3): 0.0027 mGy
Absorbed organ dose Small intestine (Patient 3): 0.0062 mGy
Absorbed organ dose Spleen (Patient 3): 0.0202 mGy
Absorbed organ dose Stomach wall (Patient 3): 0.0066 mGy
Absorbed organ dose Thymus (Patient 3): 0.0045 mGy
Absorbed organ dose Thyroid (Patient 3): 0.0039 mGy
Absorbed organ dose Total body (Patient 3): 0.0052 mGy
Absorbed organ dose ULI wall (Patient 3): 0.0063 mGy
Absorbed organ dose Urinary bladder wall (Patient 3): 0.0053 mGy
Absorbed organ dose Uterus (Patient 3): 0.0059 mGy
Absorbed organ dose Adrenals (Patient 4): 0.00524 mGy
Absorbed organ dose Brain (Patient 4): 0.00278 mGy
Absorbed organ dose Breast (Patient 4): 0.00227 mGy
Absorbed organ dose Gallbladder wall (Patient 4): 0.00502 mGy
Absorbed organ dose Heart wall (Patient 4): 0.00317 mGy
Absorbed organ dose Kidneys (Patient 4): 0.00936 mGy
Absorbed organ dose LLI wall (Patient 4): 0.00428 mGy
Absorbed organ dose Liver (Patient 4): 0.00636 mGy
Absorbed organ dose Lungs (Patient 4): 0.00337 mGy
Absorbed organ dose Muscle (Patient 4): 0.00318 mGy
Absorbed organ dose Osteogenic cells (Patient 4): 0.011 mGy
Absorbed organ dose Ovaries (Patient 4): 0.00451 mGy
Absorbed organ dose Pancreas (Patient 4): 0.00571 mGy
Absorbed organ dose Red marrow (Patient 4): 0.00617 mGy
Absorbed organ dose Skin (Patient 4): 0.00209 mGy
Absorbed organ dose Small intestine (Patient 4): 0.00455 mGy
Absorbed organ dose Spleen (Patient 4): 0.0188 mGy
Absorbed organ dose Stomach wall (Patient 4): 0.00441 mGy
Absorbed organ dose Testes (Patient 4): 0.00282 mGy
Absorbed organ dose Thymus (Patient 4): 0.00324 mGy
Absorbed organ dose Thyroid (Patient 4): 0.00329 mGy
Absorbed organ dose Total body (Patient 4): 0.00351 mGy
Absorbed organ dose ULI wall (Patient 4): 0.00441 mGy
Absorbed organ dose Urinary bladder wall (Patient 4): 0.00385 mGy
Absorbed organ dose Uterus (Patient 4): 0.0044 mGy
Absorbed organ dose Adrenals (Range Max): 0.0083 mGy
Absorbed organ dose Brain (Range Max): 0.0039 mGy
Absorbed organ dose Breast (Range Max): 0.0032 mGy
Absorbed organ dose Gallbladder wall (Range Max): 0.0073 mGy
Absorbed organ dose Heart wall (Range Max): 0.0054 mGy
Absorbed organ dose Kidneys (Range Max): 0.0137 mGy
Absorbed organ dose LLI wall (Range Max): 0.0062 mGy
Absorbed organ dose Liver (Range Max): 0.0089 mGy
Absorbed organ dose Lungs (Range Max): 0.0079 mGy
Absorbed organ dose Muscle (Range Max): 0.0044 mGy
Absorbed organ dose Osteogenic cells (Range Max): 0.0184 mGy
Absorbed organ dose Ovaries (Range Max): 0.0064 mGy
Absorbed organ dose Pancreas (Range Max): 0.0092 mGy
Absorbed organ dose Red marrow (Range Max): 0.0135 mGy
Absorbed organ dose Skin (Range Max): 0.0027 mGy
Absorbed organ dose Small intestine (Range Max): 0.0062 mGy
Absorbed organ dose Spleen (Range Max): 0.0238 mGy
Absorbed organ dose Stomach wall (Range Max): 0.0066 mGy
Absorbed organ dose Testes (Range Max): 0.0028 mGy
Absorbed organ dose Thymus (Range Max): 0.0045 mGy
Absorbed organ dose Thyroid (Range Max): 0.0039 mGy
Absorbed organ dose Total body (Range Max): 0.0052 mGy
Absorbed organ dose ULI wall (Range Max): 0.0063 mGy
Absorbed organ dose Urinary bladder wall (Range Max): 0.0053 mGy
Absorbed organ dose Uterus (Range Max): 0.0059 mGy
Absorbed organ dose Adrenals (Range Min): 0.0052 mGy
Absorbed organ dose Brain (Range Min): 0.0023 mGy
Absorbed organ dose Breast (Range Min): 0.0021 mGy
Absorbed organ dose Gallbladder wall (Range Min): 0.0050 mGy
Absorbed organ dose Heart wall (Range Min): 0.0032 mGy
Absorbed organ dose Kidneys (Range Min): 0.0094 mGy
Absorbed organ dose LLI wall (Range Min): 0.0037 mGy
Absorbed organ dose Liver (Range Min): 0.0064 mGy
Absorbed organ dose Lungs (Range Min): 0.0034 mGy
Absorbed organ dose Muscle (Range Min): 0.0028 mGy
Absorbed organ dose Osteogenic cells (Range Min): 0.0099 mGy
Absorbed organ dose Ovaries (Range Min): 0.0040 mGy
Absorbed organ dose Pancreas (Range Min): 0.0055 mGy
Absorbed organ dose Red marrow (Range Min): 0.0062 mGy
Absorbed organ dose Skin (Range Min): 0.0018 mGy
Absorbed organ dose Small intestine (Range Min): 0.0041 mGy
Absorbed organ dose Spleen (Range Min): 0.0161 mGy
Absorbed organ dose Stomach wall (Range Min): 0.0040 mGy
Absorbed organ dose Testes (Range Min): 0.0023 mGy
Absorbed organ dose Thymus (Range Min): 0.0030 mGy
Absorbed organ dose Thyroid (Range Min): 0.0028 mGy
Absorbed organ dose Total body (Range Min): 0.0028 mGy
Absorbed organ dose ULI wall (Range Min): 0.0040 mGy
Absorbed organ dose Urinary bladder wall (Range Min): 0.0033 mGy
Absorbed organ dose Uterus (Range Min): 0.0038 mGy
effective dose, range (per 500 MBq): 2.1–3.4 mSv
effective dose, median (standard activity of 500 MBq): 2.7 mSv
